A short description of series [1]: HEp-2 cell cytotoxicity, dose response, cytotoxicity control for RSV inhibitor project, HTS (AID 2410). In kind it is functional. The note with it: human respiratory syncytial virus.
A short description of series [2]: THP-1 cell cytotoxicity, dose response, cytotoxicity control for Vif-APOBEC3G degradation inhibitor project, THP-1 cells (AID 1117359). It is filed as functional. The note with it: Human immunodeficiency virus 1, THP-1.
A further series has as its target Large T antigen (Simian virus 40, UniProt P03070). In kind it is functional, Betapolyomavirus macacae.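 Also: Confirmatory-stage PubChem screen for compounds that inhibit SV40 T antigen.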
Series [3] in a line: HepG2 cell cytotoxicity, dose response, cytotoxicity control, plate reader, cherry-pick, antagonist series (AID 743416). It is filed as functional, cell-based.
Series [4] is described as follows: LGR2 antagonists, dose response, cell-based, HEK293, CRE-luciferase reporter, cherry pick, set 2 (AID 743343).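 Also: transfected cells were stimulated with diluted bursicon conditioned medium after compound addition.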 In kind it is functional.
Series [5] in a line: MC4R antagonists, dose response, counter-screen for LGR2 antagonist project, cell-based, plate reader, cherry pick (AID 743444).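 Also: transfected HEK 293 cells stimulated with alpha-MSH peptide; potency of inhibitors of the alpha-MSH evoked signal.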 In kind it is functional.
Series [6] is described as follows: A549 cell cytotoxicity, dose response, cytotoxicity control, plate reader, cherry-pick, antagonist series (AID 743412). In kind it is functional, cell-based.
A short description of series [7]: HEK293 cell cytotoxicity, dose response, cytotoxicity control, plate reader, cherry-picked samples (AID 743446). In kind it is functional, cell-based.
The target of series [8] is T1, Microphthalmia-associated transcription factor (Homo sapiens, UniProt O75030).
T1 sequence (O75030 whole entry): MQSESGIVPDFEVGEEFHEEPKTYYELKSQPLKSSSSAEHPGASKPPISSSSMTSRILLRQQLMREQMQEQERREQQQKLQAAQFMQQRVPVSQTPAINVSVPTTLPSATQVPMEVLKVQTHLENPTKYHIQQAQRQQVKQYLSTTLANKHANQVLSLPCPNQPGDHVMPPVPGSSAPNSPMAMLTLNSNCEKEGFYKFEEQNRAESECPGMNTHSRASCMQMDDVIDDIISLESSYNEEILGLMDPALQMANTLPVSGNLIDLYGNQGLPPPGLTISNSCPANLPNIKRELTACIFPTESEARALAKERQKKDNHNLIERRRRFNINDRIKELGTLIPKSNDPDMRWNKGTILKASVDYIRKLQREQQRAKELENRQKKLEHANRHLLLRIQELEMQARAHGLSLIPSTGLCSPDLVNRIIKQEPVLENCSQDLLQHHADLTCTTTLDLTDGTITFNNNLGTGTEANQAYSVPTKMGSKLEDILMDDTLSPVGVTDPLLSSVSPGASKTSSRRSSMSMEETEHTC
Kind of series: TRPM1 promoter luciferase signal decrease, dose response, MITF inhibitor project, cell-based, SK-MEL-5, cherry-picked, set 3 (AID 493073).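 Also: SK-MEL-5 melanoma cells with luciferase driven by the MITF target TRPM1 promoter.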 In kind it is functional.

Series [9] deals with T2, Calpain-2 catalytic subunit (Sus scrofa, UniProt P43367).
T2 sequence (P43367 whole entry): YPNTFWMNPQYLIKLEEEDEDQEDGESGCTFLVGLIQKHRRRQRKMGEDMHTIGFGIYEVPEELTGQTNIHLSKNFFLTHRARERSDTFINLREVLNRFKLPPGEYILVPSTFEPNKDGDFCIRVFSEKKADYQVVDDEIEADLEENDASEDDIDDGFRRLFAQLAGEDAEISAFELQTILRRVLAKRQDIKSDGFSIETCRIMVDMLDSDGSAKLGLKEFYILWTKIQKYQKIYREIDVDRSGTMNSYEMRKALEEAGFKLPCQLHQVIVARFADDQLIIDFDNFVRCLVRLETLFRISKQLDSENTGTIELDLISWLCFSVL
Kind of series: pig calpain II inhibitor potency, dose response, biochemical, fluorogenic peptide substrate (AID 1420). In kind it is functional.

The next series deals with Cytochrome P450 2C19 (Homo sapiens, UniProt P33261). Kind of series: Cytochrome panel assay with activity outcomes. Panel member name: p450-cyp2c19 Compounds with AC50 equal or less than 10 uM are considered active. It is filed as functional. Conditions: read-out: AC50.
A further series addresses Cytochrome P450 3A4 (Homo sapiens, UniProt P08684).
The target of series [10] is Glyceraldehyde-3-phosphate dehydrogenase (Homo sapiens, UniProt P04406).
The target in series [11] is T3, Alkaline phosphatase, tissue-nonspecific isozyme (Homo sapiens, UniProt P05186).
T3 sequence (P05186 whole entry): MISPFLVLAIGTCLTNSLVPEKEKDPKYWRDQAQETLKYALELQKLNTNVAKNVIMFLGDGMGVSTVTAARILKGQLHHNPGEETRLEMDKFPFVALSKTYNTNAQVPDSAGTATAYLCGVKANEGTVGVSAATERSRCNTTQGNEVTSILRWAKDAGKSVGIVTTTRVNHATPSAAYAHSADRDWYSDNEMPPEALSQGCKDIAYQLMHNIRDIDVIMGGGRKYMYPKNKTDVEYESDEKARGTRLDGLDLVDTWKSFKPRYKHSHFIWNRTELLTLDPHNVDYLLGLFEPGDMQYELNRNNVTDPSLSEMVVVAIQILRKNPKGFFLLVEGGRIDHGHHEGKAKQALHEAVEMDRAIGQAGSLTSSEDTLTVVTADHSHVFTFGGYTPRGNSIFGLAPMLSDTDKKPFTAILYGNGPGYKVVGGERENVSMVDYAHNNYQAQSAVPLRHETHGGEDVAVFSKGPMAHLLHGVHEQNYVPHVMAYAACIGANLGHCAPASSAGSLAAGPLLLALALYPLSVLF
Kind of series: human TNAP enzyme inhibitors, SAR follow-up, biochemical, luminescent, dose response (AID 1056).

The target of another series is Genome polyprotein (dengue virus type 2, UniProt P29990). Kind of series: Dengue-2 NS5 methyltransferase inhibitors, primary screen, biochemical, confirmation dose response (AID 588689). In kind it is functional.
The next series deals with Vero. Kind of series: Vero cell cytotoxicity, cytotoxicity control for flavivirus capping enzyme inhibitors (AID 588742). Conditions: Chlorocebus sabaeus. It is filed as functional.
Series [12] deals with T4, Endoribonuclease toxin MazF (Escherichia coli K-12, UniProt P0AE70).
T4 sequence (P0AE70 whole entry): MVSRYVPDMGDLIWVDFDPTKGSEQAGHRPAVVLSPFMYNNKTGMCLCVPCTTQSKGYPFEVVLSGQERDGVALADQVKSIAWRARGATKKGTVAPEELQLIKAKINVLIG
Kind of series: fluorescent RNA oligo signal without MazF, dose response, counter-screen for MazEF activator project, biochemical, fluorescence, single-stranded RNase substrate (AID 588502). In kind it is functional.

Series [13] has as its target T4, Endoribonuclease toxin MazF. Kind of series: MazF toxin RNase activators, dose response, biochemical, fluorescence, single-stranded RNA substrate, uHTS hits (AID 588481). It is filed as functional.
For series [14], the target named is T5, Fatty acid synthase (Homo sapiens, UniProt P49327). Kind of series: FAS thioesterase domain inhibitors, dose response, biochemical, kinetic fluorescence intensity (AID 624326).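 Also: rate of fluorescence rise from hydrolysis of a fluorogenic O-methyl fluorescein ester substrate.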 In kind it is functional.
Series [15] has as its target T5, Fatty acid synthase. Kind of series: FAS thioesterase domain inhibitors, dose response, biochemical, endpoint fluorescence intensity, uHTS hits (AID 624327).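 Also: fluorescence from hydrolysis of an O-methyl fluorescein acyl ester substrate by the enzyme.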 It is filed as functional.
Series [16] in a line: inhibitors of clade B AD8 Env fusion, dose response, cell-based, cherry-pick (AID 652062).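 Also: luciferase signal from cell-cell fusion driven by HIV-1 clade B AD8 Env; potency is for inhibitors of fusion seen as a drop in luminescence.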 It is filed as functional.
The nature of series [17]: ZM109 Env clade C HIV-1 fusion inhibitors, dose response, HeLa effector, CEM target cells, luciferase, cherry-pick (AID 652058). In kind it is functional, cell-based.
Series [18] in a line: off-target signal loss in HeLa-CEM21 co-culture – HeLa F-luc CTL cells, cherry-picked, counter-screen for HIV-1 Env fusion inhibitor project, dose response (AID 652040).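 Also: potency for signal decrease marking cytotoxic or nonspecific inhibition.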 It is filed as functional, cell-based.
Series [19] can be described thus: inhibitors of HIV Env-driven cell fusion, dose response, cherry-pick (AID 652057). In kind it is functional, cell-based.
Series [20] addresses T6, Voltage-gated N-type calcium channel alpha-1B subunit/Amyloid beta A4 precursor protein-binding family A member 1 (Homo sapiens, UniProt Q00975+Q02410). In kind it is protein assay.
The target in series [21] is T6, Voltage-gated N-type calcium channel alpha-1B subunit/Amyloid beta A4 precursor protein-binding family A member 1. In kind it is protein assay. This is another data set of the same source.

Experimental findings from ChEMBL document CHEMBL1201862, “PubChem BioAssay data set” (2004) are described below.

Calls of active or inactive are those of the source. A value given as a limit tells only on which side of the number the result lay.

Chain of Cytochrome P450 3A4 (P08684 whole entry): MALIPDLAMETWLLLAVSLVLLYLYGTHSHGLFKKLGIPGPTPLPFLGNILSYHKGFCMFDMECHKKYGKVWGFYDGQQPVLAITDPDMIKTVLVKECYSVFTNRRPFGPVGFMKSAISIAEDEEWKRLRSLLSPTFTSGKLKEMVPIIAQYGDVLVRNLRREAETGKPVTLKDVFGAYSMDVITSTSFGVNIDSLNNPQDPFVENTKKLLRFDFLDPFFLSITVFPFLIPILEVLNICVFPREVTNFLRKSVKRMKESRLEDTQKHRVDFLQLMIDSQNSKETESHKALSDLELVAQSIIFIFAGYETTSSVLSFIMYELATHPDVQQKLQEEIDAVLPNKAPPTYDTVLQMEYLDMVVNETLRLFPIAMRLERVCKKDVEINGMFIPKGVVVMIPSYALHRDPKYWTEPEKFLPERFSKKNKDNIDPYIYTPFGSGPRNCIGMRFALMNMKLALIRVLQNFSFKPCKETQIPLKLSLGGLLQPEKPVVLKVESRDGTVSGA
T5 sequence (P49327 whole entry, the tested form may be a part): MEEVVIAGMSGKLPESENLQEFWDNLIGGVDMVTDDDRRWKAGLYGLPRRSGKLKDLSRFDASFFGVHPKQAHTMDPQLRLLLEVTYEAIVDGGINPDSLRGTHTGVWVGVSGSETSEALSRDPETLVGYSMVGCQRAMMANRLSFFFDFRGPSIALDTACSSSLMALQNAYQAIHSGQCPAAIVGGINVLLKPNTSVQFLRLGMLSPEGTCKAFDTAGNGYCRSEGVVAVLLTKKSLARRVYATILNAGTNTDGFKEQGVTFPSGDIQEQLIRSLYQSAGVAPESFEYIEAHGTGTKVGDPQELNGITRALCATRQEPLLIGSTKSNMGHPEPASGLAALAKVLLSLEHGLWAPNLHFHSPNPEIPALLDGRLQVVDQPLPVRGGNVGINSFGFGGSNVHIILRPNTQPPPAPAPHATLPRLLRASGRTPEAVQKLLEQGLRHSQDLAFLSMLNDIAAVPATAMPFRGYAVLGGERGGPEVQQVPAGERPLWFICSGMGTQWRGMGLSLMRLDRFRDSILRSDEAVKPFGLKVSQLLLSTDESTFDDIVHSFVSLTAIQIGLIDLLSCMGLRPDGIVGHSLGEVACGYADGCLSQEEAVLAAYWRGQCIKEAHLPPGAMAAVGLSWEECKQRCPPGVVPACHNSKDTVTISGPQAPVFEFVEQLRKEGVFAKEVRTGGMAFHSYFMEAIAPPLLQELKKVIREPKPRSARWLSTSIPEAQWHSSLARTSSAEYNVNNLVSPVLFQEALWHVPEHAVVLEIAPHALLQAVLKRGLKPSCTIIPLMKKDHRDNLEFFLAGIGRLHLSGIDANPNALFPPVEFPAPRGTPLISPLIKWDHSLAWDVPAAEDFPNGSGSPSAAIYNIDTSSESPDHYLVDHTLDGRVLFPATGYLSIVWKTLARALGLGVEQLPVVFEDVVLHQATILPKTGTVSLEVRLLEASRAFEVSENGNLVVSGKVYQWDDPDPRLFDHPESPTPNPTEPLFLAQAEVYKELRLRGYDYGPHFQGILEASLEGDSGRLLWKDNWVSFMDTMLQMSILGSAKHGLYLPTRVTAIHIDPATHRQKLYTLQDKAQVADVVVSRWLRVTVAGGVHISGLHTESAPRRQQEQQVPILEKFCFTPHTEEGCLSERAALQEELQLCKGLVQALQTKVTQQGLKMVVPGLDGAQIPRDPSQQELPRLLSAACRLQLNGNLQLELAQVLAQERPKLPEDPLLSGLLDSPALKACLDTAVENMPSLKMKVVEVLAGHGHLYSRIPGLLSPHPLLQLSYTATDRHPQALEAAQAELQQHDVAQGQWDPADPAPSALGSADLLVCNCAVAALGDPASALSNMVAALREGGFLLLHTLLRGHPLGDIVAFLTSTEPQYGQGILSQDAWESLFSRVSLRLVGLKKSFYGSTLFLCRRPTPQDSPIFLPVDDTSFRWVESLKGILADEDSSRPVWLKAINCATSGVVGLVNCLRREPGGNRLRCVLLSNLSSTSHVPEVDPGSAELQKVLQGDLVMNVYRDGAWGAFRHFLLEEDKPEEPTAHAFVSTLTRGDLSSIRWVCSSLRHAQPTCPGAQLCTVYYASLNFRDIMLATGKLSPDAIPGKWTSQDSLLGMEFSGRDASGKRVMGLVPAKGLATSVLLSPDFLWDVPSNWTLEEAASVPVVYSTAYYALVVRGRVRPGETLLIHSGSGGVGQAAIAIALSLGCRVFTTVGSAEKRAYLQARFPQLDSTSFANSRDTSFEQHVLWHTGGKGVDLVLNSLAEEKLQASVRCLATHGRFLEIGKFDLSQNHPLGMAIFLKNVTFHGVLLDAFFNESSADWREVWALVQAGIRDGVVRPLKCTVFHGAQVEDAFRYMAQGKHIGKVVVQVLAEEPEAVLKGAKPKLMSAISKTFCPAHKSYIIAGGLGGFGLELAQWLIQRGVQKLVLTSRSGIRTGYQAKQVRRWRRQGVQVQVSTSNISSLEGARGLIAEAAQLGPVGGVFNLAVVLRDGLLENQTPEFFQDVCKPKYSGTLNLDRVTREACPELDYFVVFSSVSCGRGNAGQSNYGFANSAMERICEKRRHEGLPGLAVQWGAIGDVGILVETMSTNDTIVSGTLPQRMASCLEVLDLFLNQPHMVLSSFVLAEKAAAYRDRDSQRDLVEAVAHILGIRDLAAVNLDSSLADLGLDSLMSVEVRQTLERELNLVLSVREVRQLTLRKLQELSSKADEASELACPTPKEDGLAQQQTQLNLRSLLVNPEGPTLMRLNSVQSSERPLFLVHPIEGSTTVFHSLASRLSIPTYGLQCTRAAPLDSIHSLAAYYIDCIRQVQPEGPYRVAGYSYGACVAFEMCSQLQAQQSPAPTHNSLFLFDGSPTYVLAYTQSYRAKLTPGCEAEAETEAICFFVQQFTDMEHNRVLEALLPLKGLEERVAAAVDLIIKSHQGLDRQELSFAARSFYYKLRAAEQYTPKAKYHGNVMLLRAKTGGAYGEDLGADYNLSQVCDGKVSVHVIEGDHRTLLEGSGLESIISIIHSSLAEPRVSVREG
Chain of Glyceraldehyde-3-phosphate dehydrogenase (P04406 whole entry): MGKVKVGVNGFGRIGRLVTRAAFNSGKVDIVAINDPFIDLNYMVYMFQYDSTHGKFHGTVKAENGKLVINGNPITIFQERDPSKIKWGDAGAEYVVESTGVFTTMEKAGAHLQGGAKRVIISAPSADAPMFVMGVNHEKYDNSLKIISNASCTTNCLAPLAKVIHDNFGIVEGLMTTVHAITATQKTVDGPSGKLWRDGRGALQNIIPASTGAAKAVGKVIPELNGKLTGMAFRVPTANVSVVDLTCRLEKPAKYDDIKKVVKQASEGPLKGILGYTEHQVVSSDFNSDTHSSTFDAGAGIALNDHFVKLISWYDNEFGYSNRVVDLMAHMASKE
Chain of Genome polyprotein (P29990 2492-3391 limits assumed): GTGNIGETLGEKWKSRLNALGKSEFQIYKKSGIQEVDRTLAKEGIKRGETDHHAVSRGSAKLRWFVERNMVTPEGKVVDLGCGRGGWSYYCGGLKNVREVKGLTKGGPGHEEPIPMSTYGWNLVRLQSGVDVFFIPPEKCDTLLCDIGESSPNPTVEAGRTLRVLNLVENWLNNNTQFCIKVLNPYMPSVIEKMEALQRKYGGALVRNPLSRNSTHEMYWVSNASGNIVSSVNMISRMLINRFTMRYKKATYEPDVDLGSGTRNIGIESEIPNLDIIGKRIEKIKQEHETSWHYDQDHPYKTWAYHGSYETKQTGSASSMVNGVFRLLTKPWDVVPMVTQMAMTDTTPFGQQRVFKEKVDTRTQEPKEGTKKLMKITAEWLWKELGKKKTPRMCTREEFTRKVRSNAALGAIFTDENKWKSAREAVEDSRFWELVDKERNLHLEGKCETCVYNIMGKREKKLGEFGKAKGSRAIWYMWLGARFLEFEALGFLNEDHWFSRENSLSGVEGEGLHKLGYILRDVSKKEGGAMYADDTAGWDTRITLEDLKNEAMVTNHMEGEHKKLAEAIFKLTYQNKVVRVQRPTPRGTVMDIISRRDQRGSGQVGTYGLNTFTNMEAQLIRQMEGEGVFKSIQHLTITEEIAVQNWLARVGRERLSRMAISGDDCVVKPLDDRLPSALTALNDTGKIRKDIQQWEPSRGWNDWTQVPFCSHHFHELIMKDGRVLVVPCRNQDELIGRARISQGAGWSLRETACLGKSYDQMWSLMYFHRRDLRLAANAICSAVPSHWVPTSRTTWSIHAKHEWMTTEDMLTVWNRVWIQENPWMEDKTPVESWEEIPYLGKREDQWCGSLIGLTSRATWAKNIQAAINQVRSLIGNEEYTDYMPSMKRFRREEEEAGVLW
Chain of Cytochrome P450 2C19 (P33261 whole entry): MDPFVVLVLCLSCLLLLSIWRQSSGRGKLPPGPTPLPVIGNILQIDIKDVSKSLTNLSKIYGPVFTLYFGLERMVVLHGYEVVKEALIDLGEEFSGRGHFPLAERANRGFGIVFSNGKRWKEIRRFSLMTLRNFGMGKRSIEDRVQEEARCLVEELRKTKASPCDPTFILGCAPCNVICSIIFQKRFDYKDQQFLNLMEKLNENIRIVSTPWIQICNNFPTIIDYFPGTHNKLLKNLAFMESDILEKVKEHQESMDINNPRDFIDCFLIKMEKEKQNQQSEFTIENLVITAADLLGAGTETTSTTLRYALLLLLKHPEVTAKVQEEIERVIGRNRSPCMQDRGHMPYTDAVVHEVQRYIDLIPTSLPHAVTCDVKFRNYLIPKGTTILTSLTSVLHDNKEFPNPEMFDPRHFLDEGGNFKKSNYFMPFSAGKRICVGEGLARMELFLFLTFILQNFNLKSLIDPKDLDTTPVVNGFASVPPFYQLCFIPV

For `O=S(=O)(/C=C/c1ccccc1)N1CCC(c2nc(O)c3nnn(Cc4ccc(F)cc4)c3n2)CC1`, the IC50 in the series “cells” is 12 µM (active). The CC50 in series [1] is 19.1 µM (active).

With `CCN1C(=O)/C(=C\c2ccc([N+](=O)[O-])s2)C(=O)NC1=S`, in series [2], the CC50 was > 40 µM (active). For the same molecule, the IC50 at Large T antigen is 91.6 µM (active).

With `Cc1ccc(-c2cc3onc(-c4ccccc4)c3c(=O)n2C)cc1`, the AC50 in series [3] was 27.6 µM (active); in series [4], 1.67 µM (active); in [5] it was 3.13 µM (active); in [6], > 52 µM (inactive); in [7], 43.6 µM (active); in series [8] it was 9.76 µM (active).

For the molecule `Cc1nc(SCC(=O)Nc2ccccc2)c2oc3ccccc3c2n1`, the IC50 in series [9] is given as > 50 µM (not active).

In the case of `O=C(c1ccco1)N1CCC2(CC1)CN(c1ncccn1)C2`, the AC50 on Cytochrome P450 2C19 is 25.1 µM (inconclusive); on Cytochrome P450 3A4, “inconclusive”.

For `O=C1c2c(Cl)c(Cl)c(Cl)c(Cl)c2C(=O)N1c1nnc[nH]1`, the IC50 in [10] was 5.3 µM (active); in series [11] it was > 100 µM (inactive).

For `CCOc1ccc(-n2c(=S)sc3c(O)nc(SCC(=O)C(C)(C)C)nc32)cc1`, at Genome polyprotein, the IC50 is 54.2 µM (active). Also, in the series with Vero, the CC50 was > 40 µM (active).

Consider `O=c1oc(/C=C/c2ccccc2)nc2sc3c(c12)CCC3`, for which the IC50 in “cells” was 39.6 µM (active). For the same molecule, the EC50 in series [12] and in series [13] was > 99 µM (inactive) each time. Also, the CC50 in [1] is 28.4 µM (active).

Regarding `Cc1ccc([N+](=O)[O-])cc1NC(=O)C(Sc1ccccc1)c1ccccc1` (centres undefined), the results for the IC50 (on Fatty acid synthase [14]; in series [9]; at Fatty acid synthase [15]) were 1.73 µM (active), > 50 µM (not active) and 2.24 µM (active), respectively.

In the case of `O=C(NCc1ccco1)c1ccc(Cn2c(=O)c3sccc3n(Cc3cccc(F)c3)c2=O)cc1`, the AC50 was 2.36 µM (active) in [16], 580 nM (active) in series [17], 348 nM (active) in series [18] and < 260 nM (active) in series [19]. The IC50 in the series “cells” was 5.66 µM (active). Also, in [1], the CC50 was > 12.5 µM (active).

In the case of `CC(=O)[C@H]1CC[C@H]2[C@@H]3C=CC4=CC(=O)CC[C@@]4(C)[C@H]3CC[C@]12C`, the AC50 entry on Cytochrome P450 3A4 is listed as “inconclusive”.

As to `O=C1C(NS(=O)(=O)c2cccs2)=C(N2CCN(c3cccc(Cl)c3)CC2)C(=O)c2ccccc21`, the CC50 in the series on Vero is > 40 µM (active).

`COc1cccc(-c2csc3ncnc(Sc4nnnn4C)c23)c1`: the AC50 in series [8] is 25 µM (active).

As for `COc1ccc(-c2cc(C(=O)N/N=C/c3ccc4c(c3)OCO4)c3ccccc3n2)c(OC)c1`, the IC50 in the series “cells” is 27.9 µM (active). In addition, the CC50 in series [1] was 44.4 µM (active).

For the molecule `O=C(Oc1ccccc1)N1CCC2(CCN(Cc3nccs3)CC2)CC1`, the AC50 entry on Cytochrome P450 3A4 is recorded as “inconclusive”.

As for `O=C(c1ccco1)N1CCN(C(=O)C2CCCc3c2[nH]c2ccc(Cl)cc32)CC1` (centres undefined), the IC50 in the series “cells” was 16 µM (active). For the same molecule, the CC50 in series [1] was 16.2 µM (active).

In the case of `C=CCOc1ccc(CNC(C)(C)CO)cc1OC.Cl`, on Cytochrome P450 3A4, the AC50 entry is “inconclusive”.

On to `Cc1c(Cc2ccccc2)sc(NC(=O)c2ccco2)c1C(N)=O`, for which the IC50 was > 50 µM (inactive) in [20] and 9.09 µM (active) in series [21].

Regarding `Cc1ccc2c(CC(=O)Nc3cccc(S(=O)(=O)N4CCOCC4)c3)coc2c1`, the IC50 in [9] was 25.9 µM (not active).

As to `COC(=O)c1cc(-c2ccc([N+](=O)[O-])cc2)[nH]n1`, the IC50 is > 100 µM (not active) in series [10] and > 100 µM (inactive) in [11].
